In patent publication US7230094B2, “Neutral sphingomyelinase antisense ribozyme and uses thereof” (priority 2001, dated 2007):

Key:
Format in all cases: cell-based, human
MG-63 cells [1] = assay: Apoptosis by DAPI staining and counting of apoptotic cells; settings: for Increase in apoptosis compared to untreated cells: N-SMase-deficient (ribozyme) cells treated with C2 ceramide; for Increase in apoptosis assessed by DAPI staining: sham-transfected cells
Experimental: FIG. 6 depicts a quantitative analysis of the effects of TNF-α, C2-Ceramide and Fas-ligand on apoptosis in mutant (CC) and WT (MG-63) cells, as well as wild type/mock transfected cells. Cells were grown on glass cover slips and incubated for 24 hours with TNF-α (20 ng/ml), cell-permeable ceramide (C2-Ceramide) (10 ng/ml) or Fas-L (1 ng/ml). Cells were fixed and stained with DAPI and photographed at 50× magnification. Apoptotic cells were counted using a hemocytometer. The basal levels of apoptotic cells were: MG-63 (3%); L-3 (3%); and CC (2.8%). Errors bars indicate ±S.D. (N=2).
WT (MG-63), LacZ (L-3) and mutant (CC) cells were grown on glass cover slips and incubated for 24 hr with TNF-α (20 ng/ml), cell-permeable ceramide (C2-ceramide) (10 ng/ml) or Fas-L (1 ng/ml). Cells were fixed and stained with DAPI stain and photographed (50×). Apoptotic cells were counted using a hemocytometer and compared to total cell counts per field. Basal levels of apoptosis were 3% untransfected, 3% control transfection, and 2.8% ribozyme transfection.

[2] = test system: ceramide production by N-SMase; assay: Ceramide level, modified diacylglycerol kinase assay; settings: sham-transfected cells stimulated with TNF-α and Fas-L
N-SMase = assay: TNF-α and Fas ligand induced N-SMase activity in WT and mutant cells; settings: for N-SMase activity under cytokine stimulation: sham-transfected cells stimulated with TNF-α and Fas-L, basal 2.7
Experimental: FIGS. 4A–4B depict the effects of incubation with TNF-α (FIG. 4A) and Fas ligand (FIG. 4B) over time on the activity of N-SMase in mutant and WT cells. Confluent cultures of WT (MG-63) and mutant (CC) cells were incubated with serum free medium with or without TNF-α ([…]) or Fas ligand (1 ng/ml). At the indicated intervals, cells were harvested, centrifuged, and lysed in buffer containing 0.1% Triton™ X-100, 25 mM Tris (pH 7.4), 5 mM EDTA, 1 mM phenylmethylsulfonyl fluoride (PMSF), and 2 μg each of chymostatin, leupeptin, antipain, and pepstatin A. 100 μl of a reaction mixture containing 50 mM Tris (pH 7.4), 5 mM MgCl2, 0.05% Triton™ X-100, 5 mM dithiothreitol (DTT) and 10 nmol [^14C] sphingomyelin (100,000 cpm) was added to 5–10 μl of cell lysate (100 μg protein). The basal activity of N-SMase was 2.7±0.1 nmol/mg protein/hr in MG63 cells and 0.67±0.1 nmol/mg protein/hr in CC cells. These levels were defined as 100% activity. Error bars indicate ±S.D. (N=3).
Tumor necrosis factor alpha (TNF-α) is known to induce programmed cell death through stimulation of sphingomyelinase activity and generation of ceramide. This example describes the ability of the ribozyme directed against N-SMase to inhibit this pathway. The effects of incubation with TNF-α and Fas ligand over time on the activity of N-SMase in mutant and WT cells are shown in FIGS. 4A and 4B, respectively. Confluent cultures of WT (MG-63) and mutant (CC) cells were incubated with serum free medium with or without TNF-α ([…]) or Fas ligand (1 ng/ml), and the activity of N-SMase was determined by measuring the cleavage of [^14C]sphingomyelin. At 0, 10, 20, 30, 40, 50, and 60 minutes, cells were harvested, centrifuged, and lysed in buffer containing 0.1% Triton™ X-100, 25 mM Tris (pH 7.4), 5 mM EDTA, 1 mM phenylmethylsulfonyl fluoride (PMSF), and 2 μg each of chymostatin, leupeptin, antipain, and pepstatin A. 100 μl of a reaction mixture containing 50 mM Tris (pH 7.4), 5 mM MgCl2, 0.05% Triton™ X-100, 5 mM dithiothreitol (DTT) and 10 nmol [^14C]sphingomyelin (100,000 cpm) was added to 5–10 μl of cell lysate (100 μg protein). The basal activity of N-SMase was 2.7±0.1 nmol/mg protein/hr in MG63 cells and 0.67±0.1 nmol/mg protein/hr in CC cells. These levels were defined as 100% activity.

[3] = test system: caspase-3 and cytochrome-C release; assay: Caspase-3 and cytochrome-C release by western analysis and densitometry; settings: control (sham-transfected) cells
Experimental: In order to determine a dose-response relationship between the concentration of TNF-α or FasL and apoptosis, western analysis was used to quantitate release of both caspase-3 (FIG. 9) and cytochrome-C (FIG. 10).
Immunoblots for the measurement of cytochrome-C and caspase-3 were carried out after incubation of cells with TNF-α (10 ng/ml) or FasL (1 ng/ml) for 48 hours. Cells were extracted with a buffer (20 mM Hepes pH 7.5, 10 mM KCl, 1.5 mM MgCl2, 5 mM EDTA, 5 mM DTT, 2 mM phenylmethylsulfonylfluoride, 1% NonidetP40, 0.5% sodium deoxycholate, 0.1% SDS, 2 μg/ml leupeptin, 2 μg/ml aprotinin, 0.5 μg/ml benzamindine, and 250 mM sucrose) on ice for 30 minutes. After centrifugation for 10 minutes at 10,000×g, the supernatant was used for western analysis with an antibody for cytochrome-C (Pharmingen, San Diego, Calif.). For assessment of caspase-3, samples were similarly processed in addition to passage through a 21-g needle prior to centrifugation. The western analysis was performed with a rabbit polyclonal IgG antibody to caspase-3 (Santa Cruz, Calif.) raises against an epitope corresponding to amino acids 1–277, representing the full-length precursor form of CPP-32 (caspase-3). For both caspase-3 and cytochrome-C, bands were quantified with densitometric analysis.

MG-63 cells [4] = assay: Cell viability by trypan blue staining; settings: control cells, TNF-α in various concentrations, 24 hours
Experimental: FIG. 8 depicts the effect of TNF-α on viability of wild type, ribozyme transfected and wild type/mock transfected cells. Cells ([…]) were seeded in 96 well sterile plastic trays. Upon confluence medium was replaced with serum free minimum essential medium and TNF-α (20 ng/ml). After incubation for 24 h at 37° C., viability of cells were determined by Trypan blue staining. The results represent ±S.D. of three experiments.
The population of viable cells was determined using trypan blue staining. Cells (10^4) were seeded in 96 well plates. Twenty-four hours later, the media was replaced with serum-free MEM, and TNF-α in various concentrations was added. After incubation for 24 hours at 37° C., the cells were trypsinized, and viable cells were counted after staining with trypan blue. Values were compared to the original cell count (10^4) and expressed as a percentage.

Row | Increase in ceramide production [2] | Compound | Increase in apoptosis compared to untreated cells (MG-63 cells [1]) | Increase in apoptosis compared to untreated cells (MG-63 cells [1]; listed as C2-ceramide) | N-SMase activity under cytokine stimulation (N-SMase) [nmol/mg protein/hr] | Increase in apoptosis assessed by DAPI staining (MG-63 cells [1]) | Dose-response of caspase-3 and cytochrome-C release [3] | Peak N-SMase activity relative to unstimulated cells (N-SMase; control transfected clones, 10 minutes after addition of TNF-α) [%] | Decline in population of viable cells (MG-63 cells [4]) | DAPI staining (MG-63 cells [1]; control-transfected cells, TNF-α 20 ng/ml for 24 hours, compared to untransfected cells) [%]
1 |  | CCCCCCCCCCCCC/C=C/[C@@H](O)[C@H](CO)NC(C)=O [C2 ceramide] | about 2.5 fold | greater than two-fold increase |  |  |  |  |  | 
2 | about 2 fold | Fas ligand: ligand for Fas/Apo-1 (CD95), used as apoptosis agonist [reference compound] |  |  | 4.0 | about 4 fold | linear dose-response relationship |  |  | 
3 | about 2 fold | Tumor necrosis factor alpha [TNF-α, reference compound] |  |  | 4.0 | about 4 fold | linear dose-response relationship | 140 | prompt decline | 490
